Assay results as given in ChEMBL document CHEMBL5126616, “Therapeutic and Effective CURE-PRO Molecules for E3 Ligase-Mediated Targeted Protein Degradation” (ACS Med Chem Lett, 2022).

How the values were obtained:
Format in all cases: protein assay
Design in all cases: concentration or dose not given beside the values
[1] = molecular target: T1, Protein cereblon/Bromodomain-containing protein 4 (Homo sapiens) (UniProt O60885+Q96SW2); test: PROTAC activity at CRBN/BRD4 (unknown origin) assessed as BRD4 degradation in presence of N-((2-(2,6-dioxopiperidin-3-yl)-1,3-dioxoisoindolin-4-yl)methyl)-3,4- dihydroxy benzamide (CRB-N8046) by Western blot analysis
[2] = molecular target: T1, Protein cereblon/Bromodomain-containing protein 4 (Homo sapiens); test: PROTAC activity at CRBN/BRD4 (unknown origin) assessed as BRD4 degradation in presence of N-((2-(2,6-dioxopiperidin-3-yl)-1,3-dioxoisoindolin-4-yl)methyl)-2,3- dihydroxy benzamide (CRB-N8047) by Western blot analysis
[3] = molecular target: T1, Protein cereblon/Bromodomain-containing protein 4 (Homo sapiens); test: PROTAC activity at CRBN/BRD4 (unknown origin) assessed as BRD4 degradation in presence of (1S,4R,5R,6S)-N-((2-(2,6-dioxopiperidin-3-yl)-1,3-dioxoisoindolin-4-yl)methyl)-5,6- dihydroxy bicyclo[2.2.1]heptane-2-carboxamide (CRB-N8066) by Western blot analysis

T1 sequence (Q96SW2 whole entry, looked up, other chains not shown): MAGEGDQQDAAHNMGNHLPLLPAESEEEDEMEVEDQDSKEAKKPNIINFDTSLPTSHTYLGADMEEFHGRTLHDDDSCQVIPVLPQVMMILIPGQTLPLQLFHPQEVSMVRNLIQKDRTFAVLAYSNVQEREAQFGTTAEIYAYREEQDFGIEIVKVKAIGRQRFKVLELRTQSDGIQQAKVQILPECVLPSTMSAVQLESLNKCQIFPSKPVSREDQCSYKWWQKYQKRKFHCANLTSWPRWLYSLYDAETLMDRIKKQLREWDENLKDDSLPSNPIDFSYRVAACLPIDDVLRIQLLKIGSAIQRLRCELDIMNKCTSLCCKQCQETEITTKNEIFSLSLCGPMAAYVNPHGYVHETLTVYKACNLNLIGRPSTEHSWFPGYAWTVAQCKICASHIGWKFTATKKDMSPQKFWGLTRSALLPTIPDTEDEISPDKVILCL

| SMILES | Activity [1] [%] | Activity [2] [%] | Activity [3] [%] |
| --- | --- | --- | --- |
| COc1ccc2c(c1)C(c1ccc(Cl)cc1)=N[C@@H](CC(=O)NCCNC(=O)/C=C/c1ccc(B(O)O)cc1)c1nnc(C)n1-2 | 30 | 30 | 30 |
| COc1ccc2c(c1)C(c1ccc(Cl)cc1)=N[C@@H](CC(=O)NCCNC(=O)/C=C/c1cccc(B(O)O)c1)c1nnc(C)n1-2 | – | 30 | 30 |
| COc1ccc2c(c1)C(c1ccc(Cl)cc1)=N[C@@H](CC(=O)NCCCCCNC(=O)c1cccc(B(O)O)c1)c1nnc(C)n1-2 | 30 | – | 30 |
| COc1ccc2c(c1)C(c1ccc(Cl)cc1)=N[C@@H](CC(=O)NCCCCNC(=O)c1ccc(B(O)O)cc1)c1nnc(C)n1-2 | – | 30 | 30 |
| COc1ccc2c(c1)C(c1ccc(Cl)cc1)=N[C@@H](CC(=O)NCCc1ccc(B(O)O)cc1)c1nnc(C)n1-2 | – | 30 | – |
| COc1ccc2c(c1)C(c1ccc(Cl)cc1)=N[C@@H](CC(=O)NCc1ccc(B(O)O)cc1)c1nnc(C)n1-2 | – | 30 | – |
| COc1ccc2c(c1)C(c1ccc(Cl)cc1)=N[C@@H](CC(=O)NCCCNC(=O)c1cccc(B(O)O)c1)c1nnc(C)n1-2 | 30 | 30 | 30 |
| COc1ccc2c(c1)C(c1ccc(Cl)cc1)=N[C@@H](CC(=O)NCCCCCNC(=O)c1ccc(B(O)O)cc1)c1nnc(C)n1-2 | – | – | 30 |
| CCNC(=O)C[C@@H]1N=C(c2ccc(Cl)cc2)c2cc(OCCCCC(=O)Nc3cccc(B(O)O)c3)ccc2-n2c(C)nnc21 | 30 | – | 30 |
| COc1ccc2c(c1)C(c1ccc(Cl)cc1)=N[C@@H](CC(=O)NCc1cccc(B(O)O)c1)c1nnc(C)n1-2 | 30 | 30 | – |
